Test results reported in patent US20230287027A1, “ADJUVANT WITH TLR4 AGONIST ACTIVITY” (Sumitomo Pharma Co., Ltd, priority 2020, published 2023).

Assays:
human TLR4 = target: T1, human TLR4 (Homo sapiens, UniProt O00206+Q9Y6Y9); experiment: Human TLR4 reporter gene assay (Test 1); format: cell-based; conditions: HEK-Blue hTLR4 cell line, SEAP reporter, 37° C. 16-20 hours, 0.1% DMSO; concentration giving half of maximal SEAP level induced with LPS
T1 construct: host or cells: HEK-Blue hTLR4 cell line
T1 sequence (O00206 24-839): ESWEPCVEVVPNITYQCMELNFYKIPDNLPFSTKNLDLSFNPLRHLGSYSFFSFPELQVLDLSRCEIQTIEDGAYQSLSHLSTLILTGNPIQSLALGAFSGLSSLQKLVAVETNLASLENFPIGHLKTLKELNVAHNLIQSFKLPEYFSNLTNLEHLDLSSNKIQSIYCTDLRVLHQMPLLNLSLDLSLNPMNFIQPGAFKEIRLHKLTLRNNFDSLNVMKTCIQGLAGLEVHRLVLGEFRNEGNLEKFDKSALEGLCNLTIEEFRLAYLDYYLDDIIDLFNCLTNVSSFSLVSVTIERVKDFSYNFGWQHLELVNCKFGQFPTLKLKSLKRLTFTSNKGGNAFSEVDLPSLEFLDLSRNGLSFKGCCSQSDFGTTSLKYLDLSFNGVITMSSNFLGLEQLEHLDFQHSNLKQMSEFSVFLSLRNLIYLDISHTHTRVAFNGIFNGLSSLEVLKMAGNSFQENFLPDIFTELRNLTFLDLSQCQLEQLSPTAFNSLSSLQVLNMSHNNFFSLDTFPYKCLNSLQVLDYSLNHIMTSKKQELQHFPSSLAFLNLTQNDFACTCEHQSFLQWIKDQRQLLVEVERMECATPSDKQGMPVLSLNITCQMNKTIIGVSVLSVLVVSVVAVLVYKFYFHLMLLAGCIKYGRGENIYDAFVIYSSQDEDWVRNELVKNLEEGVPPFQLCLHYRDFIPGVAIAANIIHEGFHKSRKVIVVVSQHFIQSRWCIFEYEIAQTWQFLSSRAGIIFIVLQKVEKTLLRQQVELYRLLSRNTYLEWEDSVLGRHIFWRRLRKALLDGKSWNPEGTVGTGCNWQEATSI
T1 sequence (Q9Y6Y9 17-160 limits assumed): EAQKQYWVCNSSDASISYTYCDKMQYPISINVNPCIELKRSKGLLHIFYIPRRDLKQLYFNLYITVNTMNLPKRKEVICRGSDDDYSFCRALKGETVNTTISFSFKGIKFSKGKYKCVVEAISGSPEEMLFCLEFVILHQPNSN
From the text: Human TLR4 Reporter Gene Assay
(§1) HEK-Blue™ hTLR4 cell line (Invivogen Corporation) is a stably co-transfected cell line which expresses human TLR4, MD2, CD14, and secretory alkaline phosphatase (SEAP) reporter gene under the transcriptional regulation of an NF-κB response element. The TLR4 expression of the cell line has been already tested by RT-PCR, flow cytometry. Transfectants with stable expression were selected using the antibiotic HEK-Blue™ Selection. TLR signaling leads to the translocation of NF-κB and the activation of the promoter results in expression of the SEAP gene. TLR4-specific activation was assessed by determining the level of SEAP produced following incubation of the cells at 37° C. for 16-20 hours with each compound prepared in Examples and Reference examples in the presence of 0.1% (v/v) DMSO. The human TLR4 activity for the present compound was assessed by human TLR4 reporter gene assay, and the concentration of the compound concentration which produced half of the maximal level of SEAP induced with lipopolysaccharide (LPS) was determined as EC50.

mouse TLR4 = target: T2, mouse TLR4 (Mus musculus, UniProt Q9JHF9+Q9QUK6); experiment: Mouse TLR4 reporter gene assay (Test 2); format: cell-based; conditions: HEK-Blue mTLR4 cell line, SEAP reporter, 37° C. 16-20 hours, 0.1% DMSO; concentration giving half of maximal SEAP level induced with LPS
T2 construct: host or cells: HEK-Blue mTLR4 cell line
T2 sequence (Q9QUK6 26-835): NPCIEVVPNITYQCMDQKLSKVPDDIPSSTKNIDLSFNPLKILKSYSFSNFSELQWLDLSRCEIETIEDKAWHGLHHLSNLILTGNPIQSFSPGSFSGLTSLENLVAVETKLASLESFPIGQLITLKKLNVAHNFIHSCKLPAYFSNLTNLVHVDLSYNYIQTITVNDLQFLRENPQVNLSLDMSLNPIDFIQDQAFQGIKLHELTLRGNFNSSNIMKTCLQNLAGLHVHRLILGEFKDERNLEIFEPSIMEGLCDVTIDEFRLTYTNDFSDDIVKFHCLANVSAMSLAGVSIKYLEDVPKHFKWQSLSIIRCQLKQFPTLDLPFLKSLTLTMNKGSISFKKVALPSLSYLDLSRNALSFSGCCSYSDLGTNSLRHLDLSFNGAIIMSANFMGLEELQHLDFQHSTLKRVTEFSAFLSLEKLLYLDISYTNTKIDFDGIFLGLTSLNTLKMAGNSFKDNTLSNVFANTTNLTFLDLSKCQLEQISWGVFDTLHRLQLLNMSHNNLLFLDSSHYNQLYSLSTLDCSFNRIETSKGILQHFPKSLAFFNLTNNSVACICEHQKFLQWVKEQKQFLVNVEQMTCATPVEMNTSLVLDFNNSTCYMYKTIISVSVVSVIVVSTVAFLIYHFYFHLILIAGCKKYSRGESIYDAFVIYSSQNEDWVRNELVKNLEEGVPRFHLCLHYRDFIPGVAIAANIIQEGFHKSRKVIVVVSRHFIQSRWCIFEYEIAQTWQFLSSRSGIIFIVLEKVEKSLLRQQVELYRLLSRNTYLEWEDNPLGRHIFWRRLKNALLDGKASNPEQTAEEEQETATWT
T2 sequence (Q9JHF9 19-160): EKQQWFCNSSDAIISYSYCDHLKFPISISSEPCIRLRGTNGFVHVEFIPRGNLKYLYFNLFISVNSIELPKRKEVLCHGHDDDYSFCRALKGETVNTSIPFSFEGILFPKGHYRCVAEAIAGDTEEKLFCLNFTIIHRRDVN
From the text: Mouse TLR4 Reporter Gene Assay
as §1, with “mTLR4” for “hTLR4”, “(Invivogen)” for “(Invivogen Corporation)”, “mouse” for “human”, “CD14” for “CD14,”, “SEAP” for “alkaline phosphatase (SEAP)”, “LPS” for “lipopolysaccharide (LPS)”

| Compound | EC50 (human TLR4) [nM] | EC50 (mouse TLR4) [nM] | human TLR4 EC50 (human TLR4) [µg/mL] | mouse TLR4 EC50 (mouse TLR4) [µg/mL] |
| --- | --- | --- | --- | --- |
| CCCCCCCCCCC[C@H](CC(=O)NC(COC1OC(CO)C(OP(=O)(O)O)C(OC(=O)C[C@@H](CCCCCCCCCCC)OC(=O)CCCCCCCCC)C1NC(=O)C[C@@H](CCCCCCCCCCC)OC(=O)CCCCCCCCc1ccccc1)C(=O)O)OC(=O)CCCCCCCCC (single isomer, unassigned) [compound 12] | > 645 | > 645 |  |  |
| CCCCCCCCCCC[C@H](CC(=O)NC(COC1OC(CO)C(OP(=O)(O)O)C(OC(=O)C[C@@H](CCCCCCCCCCC)OC(=O)CCCCCCCCC)C1NC(=O)C[C@@H](CCCCCCCCCCC)OC(=O)CCCCCCCCC)C(=O)O)OC(=O)CCCCCCCCc1ccccc1 (stereo partly shown) [compound 14] | 14.2 | 14.2 |  |  |
| CCCCCCCCCCC[C@H](CC(=O)NC(COC1OC(CO)C(OP(=O)(O)O)C(OC(=O)C[C@@H](CCCCCCCCCCC)OC(=O)CCCCCCCCc2ccccc2)C1NC(=O)C[C@@H](CCCCCCCCCCC)OC(=O)CCCCCCCCC)C(=O)O)OC(=O)CCCCCCCCC (stereo partly shown) [Reference example 10] | 12.9 | 12.9 |  |  |
| CCCCCCCCCCC[C@H](CC(=O)NC(COC1OC(CO)C(OP(=O)(O)O)C(OC(=O)C[C@@H](CCCCCCCCCCC)OC(=O)CCCCCCCCC)C1NC(=O)C[C@@H](CCCCCCCCCCC)OC(=O)CCCCCCCCc1ccccc1)C(=O)O)OC(=O)CCCCCCCCC (single isomer, unassigned) [compound 11] | 457 | 50.3 |  |  |
| CCCCCCCCCCC[C@H](CC(=O)NC1C(OC[C@@H](NC(=O)C[C@@H](CCCCCCCCCCC)OC(=O)CCCCCCCCC)C(=O)O)OC(CO)C(O)C1OC(=O)C[C@@H](CCCCCCCCCCC)OC(=O)CCCCCCCCC)OC(=O)CCCCCCCCc1ccccc1 (stereo partly drawn) [Example 3, (2R)-2-{[(3R)-3-(decanoyloxy)tetradecanoyl]amino}-3-{[4-{[(3R)-3-(decanoyloxy)tetradecanoyl]oxy}-5-hydroxy-6-(hydroxymethyl)-3-({(3R)-3-[(9-phenylnonanoyl)oxy]tetradecanoyl}amino)oxan-2-yl]oxy}propanoic acid] | 161 | 137 |  |  |
| CCCCCCCCCCC[C@H](CC(=O)NC(COC1OC(CO)C(OP(=O)(O)O)C(OC(=O)C[C@@H](CCCCCCCCCCC)OC(=O)CCCCCCCCC)C1NC(=O)C[C@@H](CCCCCCCCCCC)OC(=O)CCCCCCCCC)C(=O)O)OC(=O)CCCCCCCCc1ccccc1 (stereo partly shown) [compound 13] | 34.2 | 13.5 |  |  |
| (2R)-2-({[(3R)-3-(9-phenylnonanoyl)oxy]tetradecanoyl}amino)-3-{[3-{[(3R)-3-(decanoyloxy)tetradecanoyl]amino}-5-hydroxy-6-(hydroxymethyl)-4-({(3R)-3-(decanoyloxy)tetradecanoyl}oxy)oxan-2-yl]oxy}propanoic acid [Example 4] |  |  | 0.077 | 0.057 |
| CCCCCCCCCCC[C@H](CC(=O)NC(COC1OC(CO)C(O)C(OC(=O)C[C@@H](CCCCCCCCCCC)OC(=O)CCCCCCCCC)C1NC(=O)C[C@@H](CCCCCCCCCCC)OC(=O)CCCCCCCCC)C(=O)O)OC(=O)CCCCCCCCc1ccccc1 (stereo partly drawn) [Example 5, (2S)-2-({[(3R)-3-(9-phenylnonanoyl)oxy]tetradecanoyl}amino)-3-{[3-{[(3R)-3-(decanoyloxy)tetradecanoyl]amino}-5-hydroxy-6-(hydroxymethyl)-4-({(3R)-3-(decanoyloxy)tetradecanoyl}oxy)oxan-2-yl]oxy}propanoic acid] | 101 | 49.7 |  |  |
